Source: ChEMBL document CHEMBL4507256 (2021)

Key:
[1] = target: RAC-gamma serine/threonine-protein kinase (Homo sapiens) (UniProt Q9Y243); conditions: Compound concentration 1000.0 nM
[2] = target: ALK tyrosine kinase receptor (Homo sapiens) (UniProt Q9UM73); conditions: Compound concentration 1000.0 nM
[3] = system: ALK tyrosine kinase receptor (Homo sapiens), Q9UM73 [L1196M]; conditions: Compound concentration 1000.0 nM
[4] = target: NUAK family SNF1-like kinase 1 (Homo sapiens) (UniProt O60285); conditions: Compound concentration 1000.0 nM
[5] = target: Protein-tyrosine kinase 6 (Homo sapiens) (UniProt Q13882); conditions: Compound concentration 1000.0 nM
[6] = target: Calcium/calmodulin-dependent protein kinase type II subunit gamma (Homo sapiens) (UniProt Q13555); conditions: Compound concentration 1000.0 nM
[7] = target: Cyclin-dependent kinase-like 2 (Homo sapiens) (UniProt Q92772); conditions: Compound concentration 1000.0 nM
[8] = target: Dual specificity protein kinase CLK2 (Homo sapiens) (UniProt P49760); conditions: Compound concentration 1000.0 nM
[9] = target: Epidermal growth factor receptor (Homo sapiens) (UniProt P00533); conditions: Compound concentration 1000.0 nM
[10] = target: Eukaryotic translation initiation factor 2-alpha kinase 1 (Homo sapiens) (UniProt Q9BQI3); conditions: Compound concentration 1000.0 nM
[11] = target: Ephrin type-A receptor 1 (Homo sapiens) (UniProt P21709); conditions: Compound concentration 1000.0 nM
[12] = target: Ephrin type-B receptor 2 (Homo sapiens) (UniProt P29323); conditions: Compound concentration 1000.0 nM
[13] = target: Mitogen-activated protein kinase 6 (Homo sapiens) (UniProt Q16659); conditions: Compound concentration 1000.0 nM
[14] = target: Tyrosine-protein kinase Fer (Homo sapiens) (UniProt P16591); conditions: Compound concentration 1000.0 nM
[15] = target: Mitogen-activated protein kinase kinase kinase kinase 1 (Homo sapiens) (UniProt Q92918); conditions: Compound concentration 1000.0 nM
[16] = target: Inhibitor of nuclear factor kappa-B kinase subunit alpha (Homo sapiens) (UniProt O15111); conditions: Compound concentration 1000.0 nM
[17] = target: Mitogen-activated protein kinase kinase kinase 15 (Homo sapiens) (UniProt Q6ZN16); conditions: Compound concentration 1000.0 nM
[18] = target: Microtubule-associated serine/threonine-protein kinase 1 (Homo sapiens) (UniProt Q9Y2H9); conditions: Compound concentration 1000.0 nM
[19] = target: Serine/threonine-protein kinase 24 (Homo sapiens) (UniProt Q9Y6E0); conditions: Compound concentration 1000.0 nM
[20] = target: Myosin light chain kinase family member 4 (Homo sapiens) (UniProt Q86YV6); conditions: Compound concentration 1000.0 nM
[21] = target: Serine/threonine-protein kinase Nek2 (Homo sapiens) (UniProt P51955); conditions: Compound concentration 1000.0 nM
[22] = target: Serine/threonine-protein kinase Nek7 (Homo sapiens) (UniProt Q8TDX7); conditions: Compound concentration 1000.0 nM
[23] = target: Mitogen-activated protein kinase kinase kinase 14 (Homo sapiens) (UniProt Q99558); conditions: Compound concentration 1000.0 nM
[24] = target: Platelet-derived growth factor receptor beta (Homo sapiens) (UniProt P09619); conditions: Compound concentration 1000.0 nM
[25] = target: Cyclin-dependent kinase 15 (Homo sapiens) (UniProt Q96Q40); conditions: Compound concentration 1000.0 nM
[26] = target: Phosphorylase b kinase gamma catalytic chain, skeletal muscle/heart isoform (Homo sapiens) (UniProt Q16816); conditions: Compound concentration 1000.0 nM
[27] = target: 1-phosphatidylinositol 3-phosphate 5-kinase (Homo sapiens) (UniProt Q9Y2I7); conditions: Compound concentration 1000.0 nM
[28] = target: Protein kinase C eta type (Homo sapiens) (UniProt P24723); conditions: Compound concentration 1000.0 nM
[29] = system: Proto-oncogene tyrosine-protein kinase receptor Ret (Homo sapiens), P07949 [V804L]; conditions: Compound concentration 1000.0 nM
[30] = target: Serine/threonine-protein kinase Sgk1 (Homo sapiens) (UniProt O00141); conditions: Compound concentration 1000.0 nM
[31] = target: Serine/threonine-protein kinase 35 (Homo sapiens) (UniProt Q8TDR2); conditions: Compound concentration 1000.0 nM
[32] = target: Serine/threonine-protein kinase 36 (Homo sapiens) (UniProt Q9NRP7); conditions: Compound concentration 1000.0 nM
[33] = target: Serine/threonine-protein kinase TAO3 (Homo sapiens) (UniProt Q9H2K8); conditions: Compound concentration 1000.0 nM
[34] = target: Non-receptor tyrosine-protein kinase TNK1 (Homo sapiens) (UniProt Q13470); conditions: Compound concentration 1000.0 nM
[35] = target: NT-3 growth factor receptor (Homo sapiens) (UniProt Q16288); conditions: Compound concentration 1000.0 nM
[36] = target: 5-hydroxytryptamine receptor 2A (Homo sapiens) (UniProt P28223); conditions: Compound concentration 10.0 uM
[37] = target: Histamine H1 receptor (Homo sapiens) (UniProt P35367); conditions: Compound concentration 10.0 uM
[38] = target: T1, Muscarinic acetylcholine receptor M2 (Homo sapiens) (UniProt P08172); conditions: Compound concentration 10.0 uM
T1 sequence (whole entry): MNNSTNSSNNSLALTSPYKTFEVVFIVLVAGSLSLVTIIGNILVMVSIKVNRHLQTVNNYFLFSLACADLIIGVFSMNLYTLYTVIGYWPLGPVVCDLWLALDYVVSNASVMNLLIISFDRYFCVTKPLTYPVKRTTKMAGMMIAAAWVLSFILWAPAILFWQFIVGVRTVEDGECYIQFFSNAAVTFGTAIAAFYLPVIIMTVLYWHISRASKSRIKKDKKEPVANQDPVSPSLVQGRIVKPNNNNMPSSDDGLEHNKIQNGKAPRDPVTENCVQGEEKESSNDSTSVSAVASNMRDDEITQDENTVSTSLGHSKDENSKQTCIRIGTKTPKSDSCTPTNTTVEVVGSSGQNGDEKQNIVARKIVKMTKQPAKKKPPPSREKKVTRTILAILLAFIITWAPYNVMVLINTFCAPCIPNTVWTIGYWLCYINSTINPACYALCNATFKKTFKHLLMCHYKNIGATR

[39] = target: Sigma non-opioid intracellular receptor 1 (Homo sapiens, UniProt Q99720); conditions: Compound concentration 10.0 uM

Protein-tyrosine kinase 6 (Homo sapiens), sequence (Q13882 whole entry, looked up): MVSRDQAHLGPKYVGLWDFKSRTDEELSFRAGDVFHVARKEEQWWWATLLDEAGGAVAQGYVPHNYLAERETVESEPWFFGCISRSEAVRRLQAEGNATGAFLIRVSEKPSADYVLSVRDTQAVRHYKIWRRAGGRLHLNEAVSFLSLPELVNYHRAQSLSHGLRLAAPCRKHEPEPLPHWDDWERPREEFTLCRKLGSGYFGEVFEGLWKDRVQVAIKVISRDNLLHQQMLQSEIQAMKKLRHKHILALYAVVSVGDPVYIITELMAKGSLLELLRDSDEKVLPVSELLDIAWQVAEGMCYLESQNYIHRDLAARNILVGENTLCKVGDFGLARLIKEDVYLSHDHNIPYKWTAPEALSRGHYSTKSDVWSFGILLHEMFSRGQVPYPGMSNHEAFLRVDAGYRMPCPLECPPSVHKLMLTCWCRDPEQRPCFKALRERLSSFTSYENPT
Phosphorylase b kinase gamma catalytic chain, skeletal muscle/heart isoform (Homo sapiens), sequence (Q16816 whole entry, looked up, canonical isoform): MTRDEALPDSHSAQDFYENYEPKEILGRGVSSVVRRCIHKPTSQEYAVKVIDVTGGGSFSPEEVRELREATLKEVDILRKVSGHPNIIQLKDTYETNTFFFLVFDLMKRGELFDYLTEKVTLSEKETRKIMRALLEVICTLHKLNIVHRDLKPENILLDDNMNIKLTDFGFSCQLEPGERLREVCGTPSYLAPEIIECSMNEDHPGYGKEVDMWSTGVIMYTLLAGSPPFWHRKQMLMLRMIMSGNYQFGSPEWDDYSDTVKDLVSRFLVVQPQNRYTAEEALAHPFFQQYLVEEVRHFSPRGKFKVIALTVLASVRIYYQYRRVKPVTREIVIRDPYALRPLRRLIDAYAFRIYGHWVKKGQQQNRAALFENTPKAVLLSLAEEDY
Ephrin type-B receptor 2 (Homo sapiens), sequence (P29323 whole entry): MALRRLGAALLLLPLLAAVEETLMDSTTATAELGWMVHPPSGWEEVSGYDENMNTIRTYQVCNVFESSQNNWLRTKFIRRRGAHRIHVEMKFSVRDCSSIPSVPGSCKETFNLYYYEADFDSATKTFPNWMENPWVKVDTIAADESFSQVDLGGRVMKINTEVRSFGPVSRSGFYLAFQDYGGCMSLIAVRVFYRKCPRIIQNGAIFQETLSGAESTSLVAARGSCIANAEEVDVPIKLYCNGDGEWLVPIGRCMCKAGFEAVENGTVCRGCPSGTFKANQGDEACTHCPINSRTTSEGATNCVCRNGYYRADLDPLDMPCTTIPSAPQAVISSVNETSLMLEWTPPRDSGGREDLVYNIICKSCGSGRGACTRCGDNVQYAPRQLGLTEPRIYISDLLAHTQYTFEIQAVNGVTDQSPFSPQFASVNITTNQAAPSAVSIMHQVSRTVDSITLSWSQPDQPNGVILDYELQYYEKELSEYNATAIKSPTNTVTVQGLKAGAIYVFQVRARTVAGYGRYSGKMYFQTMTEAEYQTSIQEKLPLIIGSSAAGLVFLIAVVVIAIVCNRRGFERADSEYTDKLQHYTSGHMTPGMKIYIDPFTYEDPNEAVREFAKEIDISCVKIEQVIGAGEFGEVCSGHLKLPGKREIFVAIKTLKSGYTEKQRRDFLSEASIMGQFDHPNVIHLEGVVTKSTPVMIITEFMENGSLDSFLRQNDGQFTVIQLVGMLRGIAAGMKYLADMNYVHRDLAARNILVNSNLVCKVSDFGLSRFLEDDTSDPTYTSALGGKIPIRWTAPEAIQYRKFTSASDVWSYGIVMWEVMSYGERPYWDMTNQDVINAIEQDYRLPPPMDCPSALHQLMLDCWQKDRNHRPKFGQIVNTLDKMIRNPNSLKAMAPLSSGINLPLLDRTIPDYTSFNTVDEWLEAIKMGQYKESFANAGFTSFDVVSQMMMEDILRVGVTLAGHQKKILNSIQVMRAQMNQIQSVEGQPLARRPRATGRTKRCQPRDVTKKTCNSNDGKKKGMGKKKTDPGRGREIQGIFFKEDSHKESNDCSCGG
Serine/threonine-protein kinase 24 (Homo sapiens), sequence (Q9Y6E0 whole entry, looked up): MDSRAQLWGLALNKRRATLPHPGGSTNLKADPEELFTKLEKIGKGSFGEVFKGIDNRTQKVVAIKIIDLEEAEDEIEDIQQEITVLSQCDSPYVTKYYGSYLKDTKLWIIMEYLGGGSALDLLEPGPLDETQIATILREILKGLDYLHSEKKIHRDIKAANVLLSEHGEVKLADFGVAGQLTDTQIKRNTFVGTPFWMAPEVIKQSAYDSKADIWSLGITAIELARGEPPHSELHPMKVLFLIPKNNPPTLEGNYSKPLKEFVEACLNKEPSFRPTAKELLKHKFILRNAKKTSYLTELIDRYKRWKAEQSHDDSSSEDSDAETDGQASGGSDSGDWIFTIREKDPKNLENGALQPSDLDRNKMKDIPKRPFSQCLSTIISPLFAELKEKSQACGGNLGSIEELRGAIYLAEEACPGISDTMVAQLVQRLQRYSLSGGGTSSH
NT-3 growth factor receptor (Homo sapiens), sequence (Q16288 32-839 limits assumed): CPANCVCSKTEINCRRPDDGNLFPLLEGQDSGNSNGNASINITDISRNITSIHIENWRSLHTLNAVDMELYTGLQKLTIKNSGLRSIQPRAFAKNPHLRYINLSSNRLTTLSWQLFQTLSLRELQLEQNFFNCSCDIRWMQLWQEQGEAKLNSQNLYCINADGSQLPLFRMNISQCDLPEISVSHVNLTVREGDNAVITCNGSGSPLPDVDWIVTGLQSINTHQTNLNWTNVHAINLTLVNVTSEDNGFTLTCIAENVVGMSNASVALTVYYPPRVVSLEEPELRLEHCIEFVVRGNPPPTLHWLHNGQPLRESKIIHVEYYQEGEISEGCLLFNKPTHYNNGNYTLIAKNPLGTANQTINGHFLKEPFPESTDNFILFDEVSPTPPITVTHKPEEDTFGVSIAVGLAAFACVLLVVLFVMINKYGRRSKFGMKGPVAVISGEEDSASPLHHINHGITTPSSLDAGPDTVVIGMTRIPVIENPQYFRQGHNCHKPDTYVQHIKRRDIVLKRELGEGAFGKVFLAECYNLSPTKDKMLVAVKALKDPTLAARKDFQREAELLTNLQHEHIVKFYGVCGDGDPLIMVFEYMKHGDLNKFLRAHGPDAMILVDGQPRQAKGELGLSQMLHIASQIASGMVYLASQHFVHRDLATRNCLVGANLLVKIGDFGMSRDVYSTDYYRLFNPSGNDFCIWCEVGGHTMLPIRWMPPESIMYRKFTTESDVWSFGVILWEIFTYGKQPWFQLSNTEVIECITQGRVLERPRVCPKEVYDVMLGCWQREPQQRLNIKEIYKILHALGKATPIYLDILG
Microtubule-associated serine/threonine-protein kinase 1 (Homo sapiens), sequence (Q9Y2H9 whole entry, looked up): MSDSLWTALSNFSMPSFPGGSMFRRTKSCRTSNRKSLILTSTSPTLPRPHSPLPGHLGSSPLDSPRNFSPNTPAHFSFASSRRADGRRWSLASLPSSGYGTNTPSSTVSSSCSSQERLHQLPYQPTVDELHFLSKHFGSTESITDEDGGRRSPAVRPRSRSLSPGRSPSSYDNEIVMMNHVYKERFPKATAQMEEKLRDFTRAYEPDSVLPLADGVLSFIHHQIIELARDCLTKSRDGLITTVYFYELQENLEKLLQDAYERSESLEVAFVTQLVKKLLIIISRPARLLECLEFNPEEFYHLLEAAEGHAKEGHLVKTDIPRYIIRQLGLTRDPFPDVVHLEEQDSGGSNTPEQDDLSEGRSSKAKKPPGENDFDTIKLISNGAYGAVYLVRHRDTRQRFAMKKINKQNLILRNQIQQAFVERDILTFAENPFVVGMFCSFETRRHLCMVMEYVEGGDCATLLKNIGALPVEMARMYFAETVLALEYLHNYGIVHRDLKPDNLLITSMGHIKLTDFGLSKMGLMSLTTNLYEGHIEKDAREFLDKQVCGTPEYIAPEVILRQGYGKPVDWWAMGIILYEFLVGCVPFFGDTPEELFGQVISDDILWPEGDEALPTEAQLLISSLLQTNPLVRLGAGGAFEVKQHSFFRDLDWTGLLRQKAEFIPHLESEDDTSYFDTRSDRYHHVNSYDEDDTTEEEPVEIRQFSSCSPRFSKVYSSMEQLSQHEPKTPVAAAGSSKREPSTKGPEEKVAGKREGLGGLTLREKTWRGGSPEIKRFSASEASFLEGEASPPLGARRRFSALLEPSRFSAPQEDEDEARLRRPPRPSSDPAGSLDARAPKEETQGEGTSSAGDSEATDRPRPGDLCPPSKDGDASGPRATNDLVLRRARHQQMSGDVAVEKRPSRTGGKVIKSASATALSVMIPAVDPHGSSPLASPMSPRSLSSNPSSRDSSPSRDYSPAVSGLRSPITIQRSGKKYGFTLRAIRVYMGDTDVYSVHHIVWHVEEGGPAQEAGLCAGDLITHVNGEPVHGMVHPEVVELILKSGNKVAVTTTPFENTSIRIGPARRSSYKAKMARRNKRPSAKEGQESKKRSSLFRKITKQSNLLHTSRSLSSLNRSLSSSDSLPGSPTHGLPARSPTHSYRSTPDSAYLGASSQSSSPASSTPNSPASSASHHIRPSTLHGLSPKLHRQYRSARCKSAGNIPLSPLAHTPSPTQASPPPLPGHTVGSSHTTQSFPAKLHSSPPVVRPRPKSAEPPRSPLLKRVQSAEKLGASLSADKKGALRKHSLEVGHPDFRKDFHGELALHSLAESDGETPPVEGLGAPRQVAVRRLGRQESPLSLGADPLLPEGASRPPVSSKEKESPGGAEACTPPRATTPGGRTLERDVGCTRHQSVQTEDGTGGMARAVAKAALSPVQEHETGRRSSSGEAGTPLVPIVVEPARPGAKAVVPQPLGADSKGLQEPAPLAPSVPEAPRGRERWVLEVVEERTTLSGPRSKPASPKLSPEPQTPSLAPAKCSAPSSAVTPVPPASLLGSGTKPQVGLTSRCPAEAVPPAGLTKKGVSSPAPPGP
Serine/threonine-protein kinase Nek7 (Homo sapiens), sequence (Q8TDX7 whole entry, looked up): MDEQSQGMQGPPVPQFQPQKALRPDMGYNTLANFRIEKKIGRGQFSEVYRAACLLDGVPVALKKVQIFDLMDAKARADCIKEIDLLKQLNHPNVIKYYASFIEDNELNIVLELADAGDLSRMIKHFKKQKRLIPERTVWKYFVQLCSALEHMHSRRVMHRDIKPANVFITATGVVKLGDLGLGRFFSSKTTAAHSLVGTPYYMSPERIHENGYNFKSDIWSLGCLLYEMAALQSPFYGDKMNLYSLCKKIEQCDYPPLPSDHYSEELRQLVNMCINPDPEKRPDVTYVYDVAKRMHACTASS

SMILES	residual activity [1] [%]	residual activity [2] [%]	residual activity [3] [%]	residual activity [4] [%]	residual activity [5] [%]	residual activity [6] [%]	residual activity [7] [%]	residual activity [8] [%]	residual activity [9] [%]	residual activity [10] [%]	residual activity [11] [%]	residual activity [12] [%]	residual activity [13] [%]	residual activity [14] [%]	residual activity [15] [%]	residual activity [16] [%]	residual activity [17] [%]	residual activity [18] [%]	residual activity [19] [%]	residual activity [20] [%]	other results
CCC(=N\O)/C(C)=C/c1ccc(F)c(C)c1 [A-226]	89	97	100	96	75	90	81	88	100	100	83	99	100	80	100	95	69	100	86	99	residual activity [21]: 100%; residual activity [22]: 100%; residual activity [23]: 100%; residual activity [24]: 86%; residual activity [25]: 100%; residual activity [26]: 100%; residual activity [27]: 100%; residual activity [28]: 68%; residual activity [29]: 97%; residual activity [30]: 100%; residual activity [31]: 100%; residual activity [32]: 100%; residual activity [33]: 46%; residual activity [34]: 100%; residual activity [35]: 100%; inhibition [36]: 40.8%; inhibition [37]: 15.2%; inhibition [38]: 14.3%; inhibition [39]: 86.8%
CCC(=N\O)/C(C)=C/c1ccc(F)cc1 [A-079]	83	87	71	100	100	100	92	78	60	100	82	76	73	74	92	67	100	71	100	94	residual activity [21]: 100%; residual activity [22]: 85%; residual activity [23]: 84%; residual activity [24]: 100%; residual activity [25]: 80%; residual activity [26]: 100%; residual activity [27]: 92%; residual activity [28]: 100%; residual activity [29]: 100%; residual activity [30]: 89%; residual activity [31]: 100%; residual activity [32]: 84%; residual activity [33]: 86%; residual activity [34]: 66%; residual activity [35]: 88%; inhibition [36]: 21.7%; inhibition [37]: 9.24%; inhibition [38]: 9.31%; inhibition [39]: 84%
